# Assay results published in US10830763B2, “Component analysis device, drug component analysis device, component analysis method, and drug component analysis method” (Hitachi High-Technologies Corporation, priority 2015, dated 2020).
# Test system: liver cells
# Test: Distribution ratio into fractions and efflux scoring of a fluorescent drug in cultured liver cells (Steps 0-6, plate reader)
# Format: in vitro ADME, rat
# Experimental: In this step, liver cells are prepared and cultured for verifying an effect of a drug. An example will be shown below. The preparation of liver cells was made according to an in-situ collagenase perfusion method. The detail is as follows. A rat (5 to 6 weeks old) is subjected to laparotomy under pentobarbital anesthesia, and a catheter is inserted into the portal vein and a pre-perfusion fluid (Hanks' solution not containing Ca2+ and Mg2+ but containing EGTA) is injected.
# Liver cells prepared by the in-situ collagenase perfusion method as described above are suspended in a medium, and the liver cells in the suspension at a density of 5×10^5 cells/mL are seeded on a commercially available collagen-coated culture dish, to conduct two dimensional plane culture (for example, sandwich culture). The seeding density, medium, culture plate 001 are not particularly limited.
# After seeding, culture is started using a CO2 incubator under conditions of 5% CO2 and 37° C. After 18 hours or more elapse, a first medium exchange is performed. Although a medium used for culture from 18 hours after the seeding is not particularly limited, in this example, a medium obtained by excluding FCS from a medium (10% FCS+) to make a medium (herein after medium (FCS−)) and then adding matrigel thereto was used. After that, medium exchange is performed with the medium (FCS−) every 24 hours.
# In this step, cells cultured in Step 0 are conditioned to a condition suitable for a drug assessment. An example will be shown below. The culture supernatant of cells cultured for 4 days in Step 0 is removed, […] of a Hanks' solution is added as a buffer, and then incubation is performed at 37° C. for 10 minutes (FIG. 2, Step 1).
# In this step, a drug solution to be assessed is administered to cells. An example will be shown below. After removing the buffer, 200 μL of 10 μM CDF (fluorescent reagent) is added to a well, incubation is performed at 37° C. for 30 minutes, the well is then retained at 4° C. for 5 minutes (FIG. 2, Step 2). […]
# [1] = Pattern 1, drug incubated 37° C. 30 minutes, fluorescence measurement
substance,measurement,setting,value
Rhodamine 123,"ratio of the bile duct excretion drug amount relative to the whole drug amount taken in the cells (BiRD), (B1-B2)/(C1+C2)",[1],4.92
same,"ratio of the drug amount discharged via a transporter relative to the blood-vessel-side discharge drug amount (RexEMTP), (B2-B3)/B2",[1],52.52
same,"sup fraction (first blood-vessel-side discharge fraction, S1)","Pattern 2: total sum of Steps 4, 5 and 6 taken as 100%, Step 4 Hanks' solution 37° C. 30 minutes, in %",39.29
